From patent US5278068A, “Biologically pure culture of Cytospora useful as angiotensin II antagonist” (Merck & Co., Inc., priority 1992, dated 1994)
Values joined by “and” are separate entries in the source; they are usually repeats but may differ in a detail not shown here. Equal values may be shown once.

Columns and labels:
[1] = target: T1, angiotensin II receptor, site 2 (rat adrenal membranes) (Rattus norvegicus, UniProt P35351); assay: Receptor Assay using Rat Adrenal Gland Preparation (125I-Angiotensin II binding); conditions: at site 2, 37° C., 90 minutes
T1 construct: Adrenal membranes for the receptor assay were readied first by placing cleaned, whole adrenal glands in microcentrifuge tubes; from tissue; host or cells: rat adrenal gland membranes
T1 sequence (P35351 1-363): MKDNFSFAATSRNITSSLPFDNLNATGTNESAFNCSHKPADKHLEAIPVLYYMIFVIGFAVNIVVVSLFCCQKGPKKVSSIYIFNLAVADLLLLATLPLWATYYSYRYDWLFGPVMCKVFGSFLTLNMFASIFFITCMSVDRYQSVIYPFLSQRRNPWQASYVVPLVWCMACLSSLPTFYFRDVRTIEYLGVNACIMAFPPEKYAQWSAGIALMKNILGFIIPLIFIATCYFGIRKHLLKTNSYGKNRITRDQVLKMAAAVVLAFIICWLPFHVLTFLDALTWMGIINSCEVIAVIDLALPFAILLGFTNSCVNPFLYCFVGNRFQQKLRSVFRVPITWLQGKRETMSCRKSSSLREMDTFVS
Source text: Angiotensin II (AII) is a powerful arterial vasoconstrictor, and it exerts its action by interacting with specific receptors present on cell membranes. The compounds produced by Cytospora sp. are competitive antagonists of AII at receptor sites. The usefulness of compounds as AII antagonists may be determined from the results of certain receptor binding assays. The initial assay is that using rat adrenal glands and the results of this assay are described herein.
Adrenal membranes for the receptor assay were readied first by placing cleaned, whole adrenal glands in microcentrifuge tubes (20 glands per tube), and freezing and storing under liquid nitrogen. As needed, a microcentrifuge tube of adrenal glands was homogenized in 20 ml 50 mM tris (hydroxymethyl)aminomethane hydrochloride (Tris-HCl) pH 7.7 and centrifuged at 20,000 rpm for 15 minutes at 4° C. […]
For the assay, the adrenal membrane preparation in one vial was resuspended in 30 ml of 100 mM Tris-HCl pH 7.4 with 5 mM MgCl2, 0.2% bovine serum albumin and 0.2 mg/ml bacitracin. […] The vials are counted with a gamma counter for one minute and percent inhibition determined from counts/min (CPM) as follows: [formula] The IC50 is determined by plotting percent inhibition v. concentration of compound tested.

[2] = tested on: male Sprague-Dawley rats; conditions: rat; known activity; cited from earlier work
[3] = tested on: rats; conditions: rat; known activity; cited from earlier work

CCCCCC1=C(C=O)C2OC(C)(C)C(O)CC23OC3C1=O (stereo not drawn) [Compound A]
IC50 [1]: 1620 to 3240 nM and 1000 to 2000 nM

CN1C(=O)CN=C(c2ccccc2)c2cc(Cl)ccc21 [Diazepam]
activity in conditioned emotional response assay [2]: active in this assay

CNC(=O)Oc1ccc2c(c1)[C@]1(C)CCN(C)[C@@H]1N2C [physostigmine]
activity in passive avoidance assay [3]: known to be active
